Source: patent US20130296383A1, “DECAHYDRO-1,4-METHANONAPHTHALEN CARBOXAMIDES” (BAYER INTELLECTUAL PROPERTY GMBH, priority 2010, published 2013)

What was measured:
[1] = log P by HPLC on reversed phase columns (EEC directive 79/831 Annex V.A8), method [b]; type: physicochemical
Protocol: Calibration was done with not branched alkan2-ones (with 3 to 16 carbon atoms) with known log P-values (measurement of log P values using retention times with linear interpolation between successive alkanones). lambda-maX-values were determined using UV-spectra from 200 nm to 400 nm and the peak values of the chromatographic signals.

Sphaerotheca fuliginea = assay: Sphaerotheca test (cucumber) / preventive; type: in vivo; conditions: 500 ppm of active ingredient, evaluated 7 days after inoculation
Protocol: Sphaerotheca Test (Cucumber)/Preventive
(§1) To produce a suitable preparation of active compound, 1 part by weight of active compound is mixed with the stated amounts of solvent and emulsifier, and the concentrate is diluted with water to the desired concentration.
To test for preventive activity, young plants are sprayed with the preparation of active compound at the stated rate of application. One day after this treatment, the plants are inoculated with an aqueous spore suspension of Sphaerotheca fuliginea. Then the plants are placed in a greenhouse at approximately 23° C. and a relative atmospheric humidity of approximately 70%.
(§2) The test is evaluated 7 days after the inoculation. 0% means an efficacy which corresponds to that of the untreated control, while an efficacy of 100% means that no disease is observed.

Alternaria solani = assay: Alternaria test (tomato) / preventive; type: in vivo; conditions: 500 ppm of active ingredient, evaluated 7 days after inoculation
Protocol: Alternaria Test (Tomato)/Preventive
as §1
To test for preventive activity, young plants are sprayed with the preparation of active compound at the stated rate of application. One day after this treatment, the plants are inoculated with an aqueous spore suspension of Alternaria solani. The plants remain for one day in an incubation cabinet at approximately 22° C. and a relative atmospheric humidity of 100%. Then the plants are placed in an incubation cabinet at approximately 20° C. and a relative atmospheric humidity of 96%.
The test is evaluated 7 days after the inoculation. 0% means an efficacy which corresponds to that of the untreated control while an efficacy of 100% means that no disease is observed.

Pyrenophora teres = assay: Pyrenophora test (barley) / preventive; type: in vivo; conditions: 500 ppm of active ingredient, evaluated 7-9 days after inoculation
Protocol: Pyrenophora Test (Barley)/Preventive
as §1
(§3) To test for preventive activity, young plants are sprayed with the preparation of active compound at the stated rate of application. One day after this treatment, the plants are inoculated with an aqueous spore suspension of Pyrenophora teres. The plants remain for 48 hours in an incubation cabinet at 22° C. and a relative atmospheric humidity of 100%. Then the plants are placed in a greenhouse at a temperature of approximately 20° C. and a relative atmospheric humidity of approximately 80%.
(§4) The test is evaluated 7-9 days after the inoculation. 0% means an efficacy which corresponds to that of the untreated control while an efficacy of 100% means that no disease is observed.

Puccinia recondita = assay: Puccinia test (wheat) / preventive; type: in vivo; conditions: 500 ppm of active ingredient, evaluated 7-9 days after inoculation
Protocol: Puccinia Test (Wheat)/Preventive
as §1
as §3, with “Puccinia recondita.” for “Pyrenophora teres.”
as §4

Venturia inaequalis = assay: Venturia test (apples) / preventive; type: in vivo; conditions: 100 ppm of active ingredient, evaluated 10 days after inoculation
Protocol: Venturia Test (Apples)/Preventive
as §1
To test for preventive activity, young plants are sprayed with the preparation of active compound at the stated rate of application. After the spray coating has dried on, the plants are inoculated with an aqueous conidia suspension of the causal agent of apple scab (Venturia inaequalis) and then remain for 1 day in an incubation cabinet at approximately 20° C. and a relative atmospheric humidity of 100%.
The plants are then placed in a greenhouse at approximately 21° C. and a relative atmospheric humidity of approximately 90%.
The test is evaluated 10 days after the inoculation. 0% means an efficacy which corresponds to that of the untreated control, while an efficacy of 100% means that no disease is observed.

[2] = test system: Blumeria graminis f.sp. hordei; assay: Blumeria test (barley) / preventive; type: in vivo; conditions: 500 ppm of active ingredient, evaluated 7 days after inoculation
Protocol: Blumeria Test (Barley)/Preventive
(§5) To produce a suitable preparation of active compound, 1 part by weight of active compound or active compound combination is mixed with the stated amounts of solvent and emulsifier, and the concentrate is diluted with water to the desired concentration.
(§6) To test for preventive activity, young plants are sprayed with the preparation of active compound or active compound combination at the stated rate of application.
After the spray coating has been dried, the plants are dusted with spores of Blumeria graminis f.sp. hordei.
The plants are placed in the greenhouse at a temperature of approximately 18° C. and a relative atmospheric humidity of approximately 80% to promote the development of mildew pustules.
as §2

Septoria tritici = Septoria tritici test (wheat) / preventive; type: in vivo; conditions: 500 ppm of active ingredient, evaluated 21 days after inoculation
Protocol: Septoria Tritici-Test (Wheat)/Preventive
as §5, §6
After the spray coating has been dried, the plants are sprayed with a spore suspension of Septoria tritici. The plants remain for 48 hours in an incubation cabinet at approximately 20° C. and a relative atmospheric humidity of approximately 100% and afterwards for 60 hours at approximately 15° C. in a translucent incubation cabinet at a relative atmospheric humidity of approximately 100%.
The plants are placed in the greenhouse at a temperature of approximately 15° C. and a relative atmospheric humidity of approximately 80%.
The test is evaluated 21 days after the inoculation. 0% means an efficacy which corresponds to that of the untreated control, while an efficacy of 100% means that no disease is observed.

With `CC(C)C1C2CCC1C1C(NC(=O)c3c(C(F)F)nn(C)c3F)CCCC21` (stereo not drawn) [Example 1, 3-(difluoromethyl)-5-fluoro-N-(9-isopropyldecahydro-1,4-methanonaphthalen-5-yl)-1-methyl-1H-pyrazole-4-carboxamide] the “LogP[b]” value ([1]; HPLC, pH 2.7, 0.1% formic acid in water / acetonitrile gradient) was “LogP^[b] = 4.87”, the chromatographic logP ([1]; reversed phase HPLC columns, pH 2.7, acid) was 4.87 and the Eff. % (Sphaerotheca fuliginea) was 100%. The Eff. % (Alternaria solani) was 95%, the Eff. % (Pyrenophora teres) was 100% and the Eff. % (Puccinia recondita) was 95%. For the same compound, the Eff. % (Venturia inaequalis) was 100%, the Eff. % [2] was 100% and the Eff. % (Septoria tritici) was 90%.
